Assay results published in patent publication US10499644B2, “Substituted oxadiazoles for combating phytopathogenic fungi” (BASF SE, priority 2015, dated 2019).

Tests used:
[1] = system: Puccinia recondita; assay: Curative control of brown rust on wheat (glass house trial); assay type: in vivo, Puccinia recondita on wheat; conditions: 63 ppm active compound, sprayed after inoculation, assessed after 8 days; untreated plants 90%
Experimental: (§1) The spray solutions were prepared in several steps: the stock solutions were prepared: a mixture of acetone and/or dimethylsulfoxide and the wetting agent/emulsifier Wettol, which is based on ethoxylated alkylphenoles, in a relation (volume) solvent-emulsifier of 99 to 1 was added to 25 mg of the compound to give a total of 5 ml. Water was then added to total volume of 100 ml. This stock solution was diluted with the described solvent-emulsifier-water mixture to the given concentration.
The first two developed leaves of pot-grown wheat seedling were dusted with spores of Puccinia recondita. To ensure the success the artificial inoculation, the plants were transferred to a humid chamber without light and a relative humidity of 95 to 99% and 20 to 24° C. for 24 hours. The next day the plants were cultivated for 3 days in a greenhouse chamber at 20 to 24° C. and a relative humidity between 65 and 70%. Then the plants were sprayed to run-off with an aqueous suspension, containing the concentration of active ingredient or their mixture as described below. The plants were allowed to air-dry. Then the trial plants were cultivated for 8 days in a greenhouse chamber at 20 to 24° C. and a relative humidity between 65 and 70%. The extent of fungal attack on the leaves was visually assessed as % diseased leaf area.

[2] = system: Puccinia recondita; assay: Preventative control of brown rust on wheat (glass house trial); assay type: in vivo, Puccinia recondita on wheat; conditions: 63 ppm active compound, sprayed 1 day before inoculation, assessed after 6 days; untreated plants 90%
Experimental: as §1
The first two developed leaves of pot-grown wheat seedling were sprayed to run-off with an aqueous suspension, containing the concentration of active ingredient or their mixture as described below. The next day the plants were inoculated with spores of Puccinia recondita. To ensure the success the artificial inoculation, the plants were transferred to a humid chamber without light and a relative humidity of 95 to 99% and 20 to 24° C. for 24 hours. Then the trial plants were cultivated for 6 days in a greenhouse chamber at 20 to 24° C. and a relative humidity between 65 and 70%. The extent of fungal attack on the leaves was visually assessed as % diseased leaf area.

## CC(=O)NC1(c2ccc(-c3noc(C(F)(F)F)n3)cc2)CC1 [Ex-2, N-[1-[4-[5-(trifluoromethyl)-1,2,4-oxadiazol-3-yl]phenyl]-cyclopropyl]acetamide]
[1]
  diseased leaf area: 1%
[2]
  diseased leaf area: 2%
